Test results reported in the supplement of paper PMC10307832.

How the values were obtained:
Test in all cases: relative viability (nuclei count vs DMSO), 5 days (fraction); higher = more cells survive
[1] = compound: CN1CCN(CCOc2cc(OC3CCOCC3)c3c(Nc4c(Cl)ccc5c4OCO5)ncnc3c2)CC1 [Saracatinib]
Summary of the method: (§1)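 Lung cancer cell lines in 1536-well plates were kept overnight at 37 °C, then pinned with five library-drug doses (not always all listed) spaced by √10 on vehicle-anchored plates. After 5 days without medium change, cells were fixed, permeabilised and Hoechst-stained in one step, imaged at 4×, and nuclei were counted with MetaXpress. Viability is treated-well nuclei divided by vehicle-well nuclei, taken as the median over plates. Plates passed only with control CV below 25% and at least one doubling.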

[2] = compound: CCNC(=O)c1noc(-c2cc(C(C)C)c(O)cc2O)c1-c1ccc(CN2CCOCC2)cc1 [Luminespib]
Summary of the method: as §1

[3] = compound: CC1=CSC(=NC2CCCCC2)N1/N=C/C3=C(C(=C(C=C3)O)O)O [MIM1]
Summary of the method: as §1

[4] = compound: Cc1cn(-c2cc(NC(=O)c3ccc(C)c(Nc4nccc(-c5cccnc5)n4)c3)cc(C(F)(F)F)c2)cn1 [Nilotinib]
Summary of the method: as §1

[5] = compound: Nc1cccc2c1CN(C1CCC(=O)NC1=O)C2=O [Lenalidomide]
Summary of the method: as §1

Row | Cell Line | relative viability ([1]; 0.02 µM) | relative viability ([1]; 0.2 µM) | relative viability ([1]; 0.6325 µM) | relative viability ([1]; 2 µM) | relative viability ([2]; 0.002 µM) | relative viability ([2]; 0.006325 µM) | relative viability ([2]; 0.01 µM, anchor plate) | relative viability ([2]; 0.02 µM) | relative viability ([2]; 0.06325 µM) | relative viability ([2]; 0.2 µM) | relative viability ([3]; 0.2 µM) | relative viability ([3]; 0.6325 µM) | relative viability ([3]; 2 µM) | relative viability ([3]; 6.325 µM) | relative viability ([3]; 20 µM) | relative viability ([4]; 0.001 µM) | relative viability ([4]; 0.003162 µM) | relative viability ([4]; 0.01 µM) | relative viability ([4]; 0.1 µM) | relative viability ([5]; 0.253 µM) | relative viability ([5]; 0.8 µM) | relative viability ([5]; 2.53 µM) | relative viability ([5]; 8 µM) | relative viability ([4]; 0.03162 µM)
1 | NCI-H1792 | 1.09 | 0.726 | 1.03 | 0.776 | 0.926 | 0.71 | 0.52 | 0.348 | 0.167 | 0.107 | 0.966 | 0.79 | 0.728 | 0.76 | 0.659 | 0.706 | 0.817 | 1.07 | 0.831 | 1.09 | 0.715 | 1.35 | 0.419 | –
2 | NCI-H1793 | 0.909 | 0.674 | 1.01 | 0.666 | 0.775 | 0.84 | 0.192 | 0.248 | 0.137 | 0.15 | 0.874 | – | 0.838 | 0.809 | 0.858 | 0.91 | 1.22 | 1.28 | 0.204 | 0.962 | – | 1.08 | 0.37 | 0.623
3 | NCI-H1915 | 0.993 | 0.91 | 1.02 | 0.911 | 0.86 | 0.878 | 0.795 | 0.878 | 0.859 | 0.119 | 1.01 | 0.702 | 0.922 | 0.477 | 0.398 | 0.916 | 1.07 | 1.11 | 0.432 | 0.971 | 0.836 | 1.08 | 0.96 | 0.955
4 | NCI-H1944 | 0.996 | – | 0.915 | 0.555 | 0.936 | 0.954 | 0.749 | 0.595 | 0.721 | 0.333 | 0.982 | 0.864 | 0.63 | 0.568 | 0.477 | 1 | 1.11 | 1.21 | 0.988 | 0.989 | 0.743 | 0.973 | 0.713 | 0.924
5 | NCI-H1975 | 1.04 | 0.952 | 1.02 | 0.698 | 0.981 | 0.91 | 0.235 | 0.507 | 0.158 | 0.147 | 0.959 | 0.968 | 0.84 | 0.609 | 0.424 | 0.871 | 1 | 0.981 | 0.724 | 1.03 | 0.821 | 1.1 | 0.889 | 0.784
6 | NCI-H1993 | 0.951 | 0.8 | 0.457 | 0.648 | 0.995 | 0.898 | 0.875 | 0.584 | 0.565 | 0.415 | 0.929 | 0.944 | 0.907 | 0.678 | 0.561 | 0.912 | 0.95 | 0.899 | 0.613 | 0.941 | 0.784 | 1.05 | 0.642 | 0.901
7 | NCI-H2009 | 1.04 | 0.906 | 0.997 | 0.782 | 1.03 | 0.923 | 1.01 | 0.903 | 0.0828 | 0.0845 | 0.996 | 0.965 | 1.04 | 0.716 | 0.29 | 0.9 | 1.05 | 1.18 | 0.588 | 0.994 | 0.986 | 1.13 | 1.01 | 1
8 | NCI-H2023 | 1.04 | 0.663 | 0.905 | 0.821 | 0.903 | 0.999 | 0.769 | 0.5 | 0.062 | 0.058 | 0.896 | 0.954 | 0.847 | 0.43 | 0.0909 | 0.916 | 0.9 | 1.31 | 0.537 | 0.928 | 1.04 | 1.13 | 0.968 | 0.83
9 | NCI-H2085 | 1.02 | 0.893 | 1.09 | 0.967 | 0.964 | 0.931 | 0.466 | 0.779 | 0.576 | 0.384 | 0.995 | 0.974 | 1.02 | 0.817 | 0.947 | 1.03 | 1.06 | 1.12 | 0.754 | 0.975 | 0.811 | 1.06 | 0.944 | 0.91
10 | NCI-H2087 | 1.11 | 0.873 | 1.11 | 1.01 | 1.07 | 0.894 | 0.192 | 0.625 | 0.143 | 0.122 | 1.03 | 0.943 | 1.03 | 0.696 | 0.583 | 0.813 | 0.981 | 0.992 | 0.299 | 1.03 | 0.892 | 1.14 | 0.888 | 0.443
11 | NCI-H2126 | 1.07 | 0.965 | 0.931 | 0.816 | 0.967 | 0.962 | 0.919 | 0.646 | 0.756 | 0.26 | 1.04 | 0.91 | 1.04 | 0.897 | 0.688 | 0.995 | 1.09 | 1.03 | 0.601 | 1.01 | 0.859 | 1.08 | 0.788 | 0.937
12 | NCI-H2170 | 1 | 0.926 | 0.986 | 0.689 | 0.974 | 0.945 | 0.732 | 0.586 | 0.793 | 0.179 | 0.943 | 0.907 | 1.02 | 0.603 | 0.28 | 0.864 | 1.16 | 1.2 | 0.952 | 1 | 0.979 | 1.01 | 0.782 | 0.875
13 | NCI-H2228 | 1.04 | 0.825 | 0.9 | 0.841 | 1.23 | 0.87 | 0.148 | 0.451 | 0.172 | 0.157 | 0.999 | 0.978 | 1.31 | 0.517 | 0.172 | 0.773 | 1.5 | 1.36 | 0.511 | 0.795 | 1.07 | 1.22 | 0.89 | 0.698
